In patent publication US20250270206A1, “COMPOSITIONS AND METHODS FOR INHIBITION OF RAS” (TheRas, Inc., priority 2022, published 2025):

Tests used:
[1] = molecular target: T1, GppNHp-loaded KRAS4b (amino acids 1-169) G12C/C118S (Homo sapiens, UniProt P01116, C118S/G12C); experiment: MALDI-TOF MS covalent Cys12 modification, GppNHp-loaded KRAS G12C; assay type: binding; settings: 15 minutes reaction time, 1 μM protein, 1:2.5 protein to compound ratio
T1 construct: KRAS4b (amino acids 1-169) G12C/C118S protein; made in house
How it was run: (§1)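 1 μM KRAS4b(1-169) G12C/C118S loaded with GTP, GppNHp or GDP in 20 mM HEPES, 150 mM NaCl, 1 mM MgCl2, pH 7.3, treated at a 1:2.5 protein:compound ratio in the dark at room temperature. Linear-mode MALDI-TOF; percent modification = adduct peak height over total protein peak heights, at 15 min.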

[2] = molecular target: T2, GTP-loaded KRAS4b (amino acids 1-169) G12C/C118S (Homo sapiens, UniProt P01116, C118S/G12C); experiment: MALDI-TOF MS covalent Cys12 modification, GTP-loaded KRAS G12C; assay type: binding; settings: 15 minutes reaction time, 1 μM protein, 1:2.5 protein to compound ratio
T2 construct: KRAS4b (amino acids 1-169) G12C/C118S protein; made in house
How it was run: as §1

[3] = molecular target: T3, GDP-loaded KRAS4b (amino acids 1-169) G12C/C118S (Homo sapiens, UniProt P01116, C118S/G12C); experiment: MALDI-TOF MS covalent Cys12 modification, GDP-loaded KRAS G12C; assay type: binding; settings: 15 minutes reaction time, 1 μM protein, 1:2.5 protein to compound ratio
T3 construct: KRAS4b (amino acids 1-169) G12C/C118S protein; made in house
How it was run: as §1

[4] = molecular target: T4, Avi-KRAS G12C (1-169) GppNHp/RAF1 RBD-3×FLAG (52-151) (Homo sapiens, UniProt P01116, G12C); experiment: KRAS G12C-effector (RAF1 RBD) protein:protein interaction HTRF disruption assay; assay type: biochemical; settings: PPI HTRF
T4 construct: Avi-KRAS G12C (1-169) GppNHp
How it was run: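 50 nM Avi-KRAS G12C (1-169) loaded with GppNHp, then 75 nM RAF1 RBD-3×FLAG, then HTRF detection mix, each step 1 h at room temperature. Buffer was 50 mM Tris pH 7.5, 100 mM NaCl, 5 mM MgCl2, 0.1% BSA, 0.01% Tween 20, 10% DMSO. Compounds titrated 30-0.02 μM (3× series). Read at 615 nm emission, reported as % activity vs DMSO (100%).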

pERK in NCI-H358 cells = experiment: Cell-based pERK HTRF assay; settings: Homo sapiens, 0.5 h, 30 min incubation
How it was run: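 KRAS G12C NCI-H358 cells in RPMI/10% FBS treated 30 min with compound, 9-point 3-fold series from 75 μM final top, 0.25% DMSO. Lysates read for phospho-ERK by HTRF (d2/Eu cryptate antibodies, 615 nm emission) after 4–24 h room-temperature incubation.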

GppNHp-KRAS G12C percent of modification [1]	GTP-KRAS G12C percent of modification [2]	GDP-KRAS G12C percent of modification [3]	IC50 [4]	IC50 (pERK in NCI-H358 cells)	Compound
A (percent of modification ≥70%)	C (10%≤percent of modification <50%)	A (percent of modification ≥70%)	≤ 500 nM	≤ 100 nM	C=CC(=O)N1CC[C@@H](N(CC)c2nc(OC[C@@]34CCCN3C[C@H](F)C4)nc3c(Cl)c(-c4ccc(F)c5sc(N)c(C#N)c45)ncc23)[C@@H]1C [Compound 51]
A (percent of modification ≥70%)	B (50% percent of modification <70%)	A (percent of modification ≥70%)	≤ 500 nM	≤ 100 nM	C=CC(=O)N1CC[C@@H](N(C)c2nc(OC[C@@]34CCCN3C[C@H](F)C4)nc3c(F)c(-c4ccc(F)c5sc(N)c(C#N)c45)ncc23)[C@@H]1C [Compound 52]
A (percent of modification ≥70%)	B (50% percent of modification <70%)	A (percent of modification ≥70%)	≤ 500 nM	≤ 100 nM	C=CC(=O)N1CC[C@@H](N(C)c2nc(OC[C@@]34CCCN3C[C@H](F)C4)nc3c(Cl)c(-c4ccc(F)c5sc(N)c(C#N)c45)ncc23)[C@@H]1C [Compound 53]
